Earlier results, collected in US9233176B2, “Systems and method of delivering fluids to a patient of varying concentration” (Bayer HealthCare LLC, priority 2006, dated 2016).
Where two headings read alike, the source gives them in different places.

iodine flux rate (300 mg I/ml solution, application flow rate 8 ml/s): 2400 mg I/s
iodine flux rate (370 mg I/ml solution, application flow rate 6 ml/s): 2220 mg I/s
SMILES: COCC(=O)Nc1c(I)c(C(=O)NCC(O)CO)c(I)c(C(=O)N(C)CC(O)CO)c1I (centres unmarked) [Iopromide]
